Measured values reported in the supplement of paper PMC8671470.

Key:
Conditions in all cases: 72 h
[1] = tested on: myeloid leukemia patient primary cells Pat.15; test: cell viability (% survival relative to DMSO control); higher = less cytotoxic
Summary of the method: (§1)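 Mononuclear cells from patients with AML or CML were thawed, purified on Ficoll and placed in RPMI 1640 with 10% FBS at 10,000 cells/well on 384-well plates. The plates came pre-printed with 70 compounds at five tenfold concentrations spanning 1–10,000 nM, in duplicate, and cells were exposed for 72 h. CellTiter-Glo gave viability, scaled between DMSO wells and wells with 10 μM proteasome inhibitor. Where reported, area under the curve was obtained from log-logistic fits with four parameters using the drc and PharmacoGx R packages.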

[2] = tested on: myeloid leukemia patient primary cells Pat.2; test: as above
Summary of the method: as §1

[3] = tested on: myeloid leukemia patient primary cells Pat.7; test: as above
Summary of the method: as §1

[4] = tested on: myeloid leukemia patient primary cells Pat.14; test: as above
Summary of the method: as §1

[5] = tested on: myeloid leukemia patient primary cells Pat.1; test: as above
Summary of the method: as §1

[6] = tested on: myeloid leukemia patient primary cells Pat.4; test: as above
Summary of the method: as §1

[7] = tested on: myeloid leukemia patient primary cells Pat.10; test: as above
Summary of the method: as §1

[8] = tested on: myeloid leukemia patient primary cells Pat.9; test: as above
Summary of the method: as §1

[9] = tested on: myeloid leukemia patient primary cells Pat.6; test: as above
Summary of the method: as §1

[10] = tested on: myeloid leukemia patient primary cells Pat.13; test: as above
Summary of the method: as §1

[11] = tested on: myeloid leukemia patient primary cells Pat.11; test: as above
Summary of the method: as §1

[12] = tested on: myeloid leukemia patient primary cells Pat.5; test: as above
Summary of the method: as §1

[13] = tested on: myeloid leukemia patient primary cells Pat.12; test: as above
Summary of the method: as §1

[14] = tested on: myeloid leukemia patient primary cells Pat.8; test: as above
Summary of the method: as §1

Mono-Mac-6 = test: cell viability (% survival relative to DMSO control, bortezomib = 0%); higher = less cytotoxic
Summary of the method: (§2)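 Fifteen myeloid leukaemia cell lines (10 AML, 5 CML) were seeded at a density titrated to the linear growth range into 384-well plates pre-printed with compounds at 1, 10, 100, 1000 or 10000 nM in duplicate. Plates were incubated for 72 h at 37 °C with 5% CO2. Viability was then read by CellTiter-Glo luminescence. Each value is percent survival averaged over the duplicates, with vehicle set to 100% and a 10 µM positive control to 0%.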

HEL = test: as above
Summary of the method: as §2

SHI-1 = test: as above
Summary of the method: as §2

HL-60 = test: area under dose-response curve (viability, 1 nM-10 uM) (fraction (0-1)); higher = more sensitive
Summary of the method: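 HL-60 cells in RPMI 1640 with 10% FBS were rescreened against the full library on 384-well plates at five tenfold concentrations, 1–10,000 nM, in duplicate. Each screen was run with DMSO or 100 nM of one of three metabolic inhibitors, for 72 h at 37 °C, 5% CO2. Viability was read by CellTiter-Glo and normalised to DMSO and 10 μM proteasome-inhibitor wells. Where given, area under the curve came from four-parameter log-logistic fits (drc, PharmacoGx).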

O=C(C1CC1)N1CC[C@@H](C=C2NNC(=O)N2c2ccc(-c3ccc4occc4c3)cc2)C1
cell viability [%]
Conditions | 1 nM | 10 nM | 100 nM | 1000 nM | 10000 nM
HEL | 106 | 90.5 | 107 | 101 | 78.5
Mono-Mac-6 | 94.7 | 91.2 | 90 | 88 | 64.9
SHI-1 | 90.4 | 99.4 | 108 | 94.7 | 79.6
[1] | 89.4 | 95.2 | 95.7 | 90.3 | 84
[2] | > 100 | 99 | > 100 | 95.2 | 91.7
[3] | > 100 | 97.1 | 81.9 | 51.6 | 71.6
[4] | 92.5 | 91.4 | 96.2 | 77.3 | 79.5
[5] | 87 | 89 | > 100 | 96.2 | 79.7
[6] | 79.7 | 87.2 | 90.8 | 92.1 | 71.6
[7] | 80.8 | 46.1 | 50.2 | 67 | 47.8
[8] | 95.6 | 80.9 | 87.2 | 45.5 | 33.2
[9] | 98.1 | 97.7 | > 100 | 89.4 | 79.5
[10] | 85.5 | 96.1 | 92.9 | 86.5 | 80.1
[11] | 94.6 | 98 | 99.7 | 91.5 | 88
[12] | 73 | > 100 | 72.3 | 35.3 | 17.1
[13] | 95.4 | 92.8 | > 100 | 89 | 84.1
[14] | 85.5 | 95.4 | 74 | 92.2 | 73.2

C[C@H](NC(=O)c1sccc1OCc1ccc(Cl)cc1)c1ccccc1
Conditions | area under dose-response curve, co-treatment: AZD3965 100 nM | area under dose-response curve, co-treatment: DMSO vehicle | area under dose-response curve, co-treatment: GSK2194069 100 nM | area under dose-response curve, co-treatment: pictilisib 100 nM | cell viability, 1 nM [%] | cell viability, 10 nM [%] | cell viability, 100 nM [%] | cell viability, 1000 nM [%] | cell viability, 10000 nM [%]
HEL | – | – | – | – | 98.3 | 101 | 97.6 | 97.5 | 91.4
HL-60 | < 0.0301 | < 0.0301 | < 0.0301 | < 0.0301 | – | – | – | – | –
Mono-Mac-6 | – | – | – | – | 88.8 | 102 | 102 | 98.3 | 88.8
SHI-1 | – | – | – | – | 82.5 | 98.7 | 97.9 | 95.4 | 75.7
[1] | – | – | – | – | 92.7 | 95.6 | 97.7 | 92.2 | 81.3
[2] | – | – | – | – | > 100 | 95.8 | > 100 | 97.8 | 64
[3] | – | – | – | – | 93.1 | 85.3 | 90.3 | 40.2 | < 0
[4] | – | – | – | – | 88.5 | 88 | 99.3 | 99.3 | 1.72
[5] | – | – | – | – | 94.5 | 95.9 | 91 | > 100 | 54
[6] | – | – | – | – | 94.6 | 93.6 | 94.1 | 83.3 | 39.9
[7] | – | – | – | – | 81.9 | 67.4 | 73.5 | 80.2 | < 0
[8] | – | – | – | – | 84.8 | 59.2 | 79 | 59.2 | 1.24
[9] | – | – | – | – | > 100 | 98.1 | 99.6 | 91.5 | 35.7
[10] | – | – | – | – | 92.9 | 89 | 92.3 | 91.7 | 43.4
[11] | – | – | – | – | 93 | > 100 | > 100 | 97.6 | > 100
[12] | – | – | – | – | 88.1 | 68.7 | 71.7 | 19.4 | 4.74
[13] | – | – | – | – | 90 | 98.4 | 91.8 | > 100 | 63.8
[14] | – | – | – | – | 72.9 | 85.9 | 87.7 | > 100 | 61

O=C(O)C1=CC(=C(c2ccc(O)c(C(=O)O)c2)c2ccc(O)c(C(=O)O)c2)C=CC1=O [Aurintricarboxylic acid]
Conditions | area under dose-response curve, co-treatment: AZD3965 100 nM | area under dose-response curve, co-treatment: DMSO vehicle | area under dose-response curve, co-treatment: GSK2194069 100 nM | area under dose-response curve, co-treatment: pictilisib 100 nM | cell viability, 1 nM [%] | cell viability, 10 nM [%] | cell viability, 100 nM [%] | cell viability, 1000 nM [%] | cell viability, 10000 nM [%]
HEL | – | – | – | – | 108 | 85.9 | 115 | 92.5 | 21.8
HL-60 | < 0.0301 | < 0.0301 | < 0.0301 | < 0.0301 | – | – | – | – | –
Mono-Mac-6 | – | – | – | – | 98.6 | 98.6 | 104 | 105 | 89.7
SHI-1 | – | – | – | – | 104 | 91.8 | 99 | 100 | 114
[1] | – | – | – | – | 96.4 | > 100 | 89.3 | 86.6 | 87.3
[2] | – | – | – | – | 98 | 99.7 | 97.8 | > 100 | 98.8
[3] | – | – | – | – | 87.2 | 94.1 | > 100 | > 100 | 70.9
[4] | – | – | – | – | 92.5 | > 100 | 98.6 | > 100 | 92.1
[5] | – | – | – | – | 92.9 | 94.4 | 96.2 | > 100 | > 100
[6] | – | – | – | – | 99.3 | 81.2 | 83.3 | > 100 | 91
[7] | – | – | – | – | 98.4 | 90.3 | 91.9 | > 100 | > 100
[8] | – | – | – | – | > 100 | 99 | 88 | > 100 | 53.2
[9] | – | – | – | – | 99.8 | 97.5 | > 100 | > 100 | 97.7
[10] | – | – | – | – | 89.1 | 91.4 | 94.1 | > 100 | 93.4
[11] | – | – | – | – | > 100 | 95.8 | > 100 | > 100 | > 100
[12] | – | – | – | – | > 100 | 88.3 | 91.7 | > 100 | > 100
[13] | – | – | – | – | 96.5 | 97.4 | 99.8 | > 100 | 99.6
[14] | – | – | – | – | 92.5 | 87.6 | 79.7 | 94.2 | 79.4
